Data taken from ChEMBL document CHEMBL3243921, “2-Pyrrolidinylideneureas, a new class of central nervous system agents” (J Med Chem, 1978).
The source made the active and inactive calls.

Assays:
Mus musculus [1] = assay: Sedative-hypnotic activity in mouse assessed as increase in pentylenetetrazol-induced pseudo/persistent-convulsive threshold at 1 to 5 mg/kg, po; type: functional, organism-based
Mus musculus [2] = assay: Muscle relaxant activity in po dosed mouse assessed as increase in strychnine-induced persistant convulsive threshold; type: functional
Rattus norvegicus [3] = assay: Antianxiety activity in ip dosed rat assessed as effect on increase in punished responses administered qd for 5 days measured every day for 5 days; type: functional; conditions: 120 h, read-out: MED
Mus musculus [4] = assay: Anticonvulsant activity in po dosed mouse assessed as blockade of supramaximal electroshock-induced […] seizure; type: functional
Mus musculus [5] = assay: Muscle relaxant activity in po dosed mouse assessed as blockade of pentylenetetrazol-induced tonic extensor seizure; type: functional
[6] = Acute toxicity in po dosed mouse assessed as mortality administered as qd for 6 days measured on day 7 post last dose; type: organism-based; conditions: in vivo
Mus musculus [7] = assay: Sedative activity in mouse assessed as increase in pentylenetetrazol-induced pseudo-convulsive threshold at 25 to 200 mg/kg, po; type: functional, organism-based
[8] = Therapeutic index, ratio of PD50 for acute toxicity in po dosed mouse assessed as concentration required to produce 50% loss of righting reflex to MED causing antianxiety activity in ip dosed rat assessed as effect on increase in punished responses; type: organism-based; conditions: in vivo, other: oral (PD50, mouse) and intraperitoneal (MED, rat), read-out: TI
Mus musculus [9] = assay: Acute toxicity in po dosed mouse assessed as concentration required to produce 50% loss of righting reflex administered as qd for 4 days measured for 1 min post last dose; type: organism-based; conditions: in vivo
Mus musculus [10] = assay: Hypotic activity in mouse assessed as increase in pentylenetetrazol-induced persistant-convulsive threshold at 200 mg/kg, po relative to control; type: functional, organism-based; set-up: dose 200 mg/kg
[11] = Ratio of LD50 for po dosed mouse to PD50 for acute toxicity in po dosed mouse assessed as concentration required to produce 50% loss of righting reflex; type: organism-based; conditions: in vivo
Mus musculus [12] = assay: Sedative activity in mouse assessed as increase in pentylenetetrazol-induced pseudo-convulsive threshold at 100 mg/kg, po; type: functional, organism-based; set-up: dose 100 mg/kg
Mus musculus [13] = assay: Sedative activity in mouse assessed as increase in pentylenetetrazol-induced pseudo-convulsive threshold at 200 mg/kg, po relative to control; type: functional
Mus musculus [14] = assay: Sedative activity in mouse assessed as increase in pentylenetetrazol-induced pseudo-convulsive threshold up to 200 mg/kg, po; type: functional, organism-based; set-up: dose 200 mg/kg
Mus musculus [15] = assay: Potency index, ratio of chlorzoxazone MED20 to compound MED20 for muscle relaxant activity in po dosed mouse assessed as blockade of pentylenetetrazol-induced tonic extensor seizure; type: functional
Mus musculus [16] = assay: Hypnotic activity in mouse assessed as increase in pentylenetetrazol-induced persistent-convulsive threshold up to 200 mg/kg, po; type: functional, organism-based; set-up: dose 200 mg/kg
Mus musculus [17] = assay: Potency index, ratio of methocarbamol MED20 to compound MED20 for muscle relaxant activity in po dosed mouse assessed as blockade of pentylenetetrazol-induced tonic extensor seizure; type: functional
[18] = Therapeutic index, ratio of PD50 for acute toxicity in po dosed mouse assessed as concentration required to produce 50% loss of righting reflex to MED25 for muscle relaxant activity in po dosed mouse assessed as increase in strychnine-induced persistant convulsive threshold; type: organism-based; conditions: in vivo, read-out: TI
Mus musculus [19] = assay: Blockade of pentylenetetrazol-induced lethality in mouse assessed as delay in occurrence of death time up to 200 mg/kg, po; type: functional
Mus musculus [20] = assay: Potency index, ratio of methocarbamol MED20 to compound MED20 for anticonvulsant activity in po dosed mouse assessed as blockade of supramaximal electroshock-induced […] seizure; type: functional
Mus musculus [21] = assay: Potency index, ratio of chlorzoxazone MED20 to compound MED20 for anticonvulsant activity in po dosed mouse assessed as blockade of supramaximal electroshock-induced […] seizure; type: functional
Mus musculus [22] = assay: Sedative-hypnotic activity in po dosed mouse assessed as increase in pentylenetetrazol-induced persistent-convulsive threshold; type: functional, organism-based
Mus musculus [23] = assay: Sedative-hypnotic activity in mouse assessed as increase in pentylenetetrazol-induced pseudo/persistent-convulsive threshold at 50 to 200 mg/kg, po; type: functional, organism-based
Mus musculus [24] = assay: Hypnotic activity in mouse assessed as increase in pentylenetetrazol-induced persistent-convulsive threshold at 50 mg/kg, po relative to control; type: functional
Mus musculus [25] = assay: Sedative activity in mouse assessed as increase in pentylenetetrazol-induced pseudo-convulsive threshold at 50 mg/kg, po relative to control; type: functional
Mus musculus [26] = assay: Sedative activity in mouse assessed as increase in pentylenetetrazol-induced pseudo-convulsive threshold at 25 mg/kg, po relative to control; type: functional
Mus musculus [27] = assay: Blockade of pentylenetetrazol-induced lethality in mouse at 40 mg/kg, po; type: functional, organism-based; set-up: dose 40 mg/kg
Mus musculus [28] = assay: Muscle relaxant activity in mouse assessed as blockade of pentylenetetrazol-induced tonic extensor seizure at 40 mg/kg, po; type: functional, organism-based; set-up: dose 40 mg/kg
Rattus norvegicus [29] = assay: Antianxiety activity in rat assessed as effect on increase in punished responses at 25 mg/kg, ip qd administered for 5 days measured every day for 5 days; type: functional, organism-based; set-up: dose 25 mg/kg

Row | Structure (SMILES) | MED25 (Mus musculus [2]) | minimal effective dose (Rattus norvegicus [3]) | MED20 (Mus musculus [4]) | MED20 (Mus musculus [5]) | LD50 at 144 h [6] | selectivity ratio [8] | PD50 (Mus musculus [9]) | selectivity ratio [11] | Activity (Mus musculus [14]) | Ratio (Mus musculus [15]) | Activity (Mus musculus [16]) | Ratio (Mus musculus [17]) | Time (Mus musculus [19]) | other results
1 | CN1C(=O)CN=C(c2ccccc2)c2cc(Cl)ccc21 [DIAZEPAM] | 0.17 mg/kg | 0.5 mg/kg | 15 mg/kg | 0.1 mg/kg | – | – | – | – | – | – | – | – | – | Activity (Mus musculus [1]): Active
2 | CN1CCC/C1=N\C(=O)Nc1cccc(Cl)c1 | 50 mg/kg | 15 mg/kg | 142 mg/kg | 32 mg/kg | 1500 mg/kg | 63 | 950 mg/kg | 1.6 | – | – | – | – | – | Activity (Mus musculus [7]): Active; Activity (Mus musculus [10]): inactive; Activity (Mus musculus [12]): inactive; Activity (Mus musculus [13]): 50%
3 | CN1CCC/C1=N\C(=O)Nc1c(Cl)cccc1Cl | 64 mg/kg | > 25 mg/kg | 58 mg/kg | 25 mg/kg | 565 mg/kg | – | 320 mg/kg | 1.8 | inactive | 4 | inactive | 4 | 1 min | selectivity ratio [18]: 5
4 | CCc1cccc(C)c1NC(=O)/N=C1\CCCN1C | 96 mg/kg | – | 36 mg/kg | 20 mg/kg | 650 mg/kg | – | – | – | inactive | 4 | inactive | 4 | 1 min | Ratio (Mus musculus [20]): 3; Ratio (Mus musculus [21]): 3
5 | COc1cccc(OC)c1NC(=O)/N=C1\CCCN1C | >200 mg/kg | > 25 mg/kg | 80 mg/kg | 62 mg/kg | 650 mg/kg | – | 460 mg/kg | 1.4 | inactive | – | inactive | – | 1 min | –
6 | CCN1CCC/C1=N\C(=O)Nc1cccc(Cl)c1 | 137 mg/kg | 15 mg/kg | 200 mg/kg | 60 mg/kg | 1700 mg/kg | 58 | 1307 mg/kg | 1.2 | – | – | – | – | – | Activity (Mus musculus [22]): Active; Activity (Mus musculus [23]): Active
7 | CN1CCC/C1=N\C(=O)Nc1ccc([N+](=O)[O-])cc1 | >200 mg/kg | 15 mg/kg | >200 mg/kg | 100 mg/kg | 1310 mg/kg | 80 | 1200 mg/kg | 1 | – | – | – | – | – | Activity (Mus musculus [7]): Active; Activity (Mus musculus [24]): 45%; Activity (Mus musculus [25]): 73%; Activity (Mus musculus [23]): Active; Activity (Mus musculus [26]): 25%
8 | CNC1=Nc2ccc(Cl)cc2C(c2ccccc2)=[N+]([O-])C1 [CHLORDIAZEPOXIDE] | 10 mg/kg | 2.5 mg/kg | 71 mg/kg | 1.5 mg/kg | 990 mg/kg | 260 | 680 mg/kg | 1.5 | – | – | – | – | – | Activity (Mus musculus [27]): Active; Activity (Mus musculus [28]): Active
9 | CC(C)c1cccc(C(C)C)c1NC(=O)/N=C1\CCCN1C | >200 mg/kg | – | 165 mg/kg | 180 mg/kg | 260 mg/kg | – | – | – | inactive | – | inactive | – | 1 min | –
10 | Cc1cccc(Cl)c1NC(=O)/N=C1\CCCN1C | 52 mg/kg | > 25 mg/kg | 43 mg/kg | 28 mg/kg | 449 mg/kg | – | 232 mg/kg | 1.9 | inactive | 4 | inactive | 4 | 1 min | Ratio (Mus musculus [20]): 3; selectivity ratio [18]: 4.5; Ratio (Mus musculus [21]): 3
11 | CCCCCCCCCCCCNC(=O)/N=C1\CCCN1 | – | – | – | – | – | – | – | – | – | – | – | – | – | Activity (Rattus norvegicus [29]): Active
12 | Cc1cccc(NC(=O)/N=C2\CCCN2C)c1 | >200 mg/kg | 25 mg/kg | 76 mg/kg | 25 mg/kg | 850 mg/kg | 33 | 825 mg/kg | 1 | – | – | – | – | – | Activity (Mus musculus [7]): Active
13 | CN1CCC/C1=N\C(=O)Nc1cccc(Br)c1 | 58 mg/kg | 25 mg/kg | 180 mg/kg | 52 mg/kg | 1580 mg/kg | 57 | 1430 mg/kg | 1.1 | – | – | – | – | – | Activity (Mus musculus [7]): Active
14 | CCc1cccc(CC)c1NC(=O)/N=C1\CCCN1C | 120 mg/kg | > 25 mg/kg | 64 mg/kg | 16 mg/kg | 370 mg/kg | – | 161 mg/kg | 2.3 | inactive | 4 | inactive | 4 | 1 min | selectivity ratio [18]: 1.3
15 | CN1CCC/C1=N\C(=O)Nc1c(Br)cccc1Br | 50 mg/kg | > 25 mg/kg | 74 mg/kg | 25 mg/kg | 560 mg/kg | – | 350 mg/kg | 1.6 | inactive | 4 | inactive | 4 | 1 min | selectivity ratio [18]: 7
